Usually IC50 stands for the concentration at which inhibition is half-maximal. For orientation: Ki means a dissociation constant, usually derived from enzyme kinetics or from competition with a known ligand.

Assay [1] concerns the target T1, C-X-C chemokine receptor type 1 (Homo sapiens, UniProt P25024). Further: in other assays of this panel Not Active means under 50% inhibition at 10 µM.
T1 sequence (P25024 whole entry): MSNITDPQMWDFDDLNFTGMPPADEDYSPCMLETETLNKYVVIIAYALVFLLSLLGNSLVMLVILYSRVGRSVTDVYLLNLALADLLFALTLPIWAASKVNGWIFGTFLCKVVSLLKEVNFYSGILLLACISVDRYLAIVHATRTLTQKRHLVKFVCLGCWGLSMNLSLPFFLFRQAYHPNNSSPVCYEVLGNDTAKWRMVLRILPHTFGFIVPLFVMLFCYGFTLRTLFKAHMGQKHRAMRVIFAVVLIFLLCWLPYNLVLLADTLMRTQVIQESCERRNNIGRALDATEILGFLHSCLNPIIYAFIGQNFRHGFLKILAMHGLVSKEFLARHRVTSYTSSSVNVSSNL

A further assay deals with T2, Caspase-1 (Homo sapiens, UniProt P29466).
T2 sequence (P29466 whole entry): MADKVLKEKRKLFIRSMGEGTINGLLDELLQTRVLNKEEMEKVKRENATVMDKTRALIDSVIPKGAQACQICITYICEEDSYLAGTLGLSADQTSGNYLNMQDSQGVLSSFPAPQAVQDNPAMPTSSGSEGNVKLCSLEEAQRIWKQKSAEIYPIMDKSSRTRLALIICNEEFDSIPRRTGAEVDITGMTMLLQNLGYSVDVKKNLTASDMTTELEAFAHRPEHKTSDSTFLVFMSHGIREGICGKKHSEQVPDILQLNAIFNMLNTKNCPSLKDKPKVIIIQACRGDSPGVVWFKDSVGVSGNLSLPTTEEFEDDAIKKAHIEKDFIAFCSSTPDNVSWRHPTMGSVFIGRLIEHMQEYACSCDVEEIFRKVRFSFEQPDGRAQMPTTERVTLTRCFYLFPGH
The arrangement: species or system Escherichia coli.

Assay [2] in a line: DRUGMATRIX: Phosphodiesterase PDE3 enzyme inhibition (substrate: [3H]cAMP + cAMP). The format is tissue-based, Homo sapiens. To be noted: platelet, Not Active = under 50% inhibition at 10 µM.
A further assay has as its target Melanocortin receptor 5 (Homo sapiens, UniProt P33032). The assay is classed as cell membranes, HEK293, Membrane. Further: in other assays of this panel Not Active means under 50% inhibition at 10 µM.
In assay [3] the target is T3, C-X-C chemokine receptor type 2 (Homo sapiens, UniProt P25025). Further: in other assays of this panel Not Active means under 50% inhibition at 10 µM.
T3 sequence (P25025 whole entry): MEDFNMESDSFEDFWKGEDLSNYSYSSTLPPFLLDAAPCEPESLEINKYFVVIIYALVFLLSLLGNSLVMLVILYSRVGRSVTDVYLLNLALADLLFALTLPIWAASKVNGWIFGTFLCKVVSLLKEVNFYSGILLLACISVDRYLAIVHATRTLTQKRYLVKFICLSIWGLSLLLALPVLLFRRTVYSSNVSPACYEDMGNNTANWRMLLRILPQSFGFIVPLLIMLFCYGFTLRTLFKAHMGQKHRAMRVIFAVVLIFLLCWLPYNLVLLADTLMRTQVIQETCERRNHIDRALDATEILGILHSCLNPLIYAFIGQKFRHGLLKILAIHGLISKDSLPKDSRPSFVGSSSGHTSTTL
The format is cell membranes, CHO-K1, Membrane. To be noted: cho-k1.

Assay [4] can be described thus: DRUGMATRIX: Interleukin IL-1 radioligand binding (ligand: [125I] interleukin 1beta). The format is cell membranes, Membrane. The note with it: nih3t3; Not Active = under 50% inhibition at 10 µM.
The next assay concerns the target T4, B2 bradykinin receptor (Homo sapiens, UniProt P30411). Further: in other assays of this panel Not Active means under 50% inhibition at 10 µM.
T4 sequence (P30411 whole entry): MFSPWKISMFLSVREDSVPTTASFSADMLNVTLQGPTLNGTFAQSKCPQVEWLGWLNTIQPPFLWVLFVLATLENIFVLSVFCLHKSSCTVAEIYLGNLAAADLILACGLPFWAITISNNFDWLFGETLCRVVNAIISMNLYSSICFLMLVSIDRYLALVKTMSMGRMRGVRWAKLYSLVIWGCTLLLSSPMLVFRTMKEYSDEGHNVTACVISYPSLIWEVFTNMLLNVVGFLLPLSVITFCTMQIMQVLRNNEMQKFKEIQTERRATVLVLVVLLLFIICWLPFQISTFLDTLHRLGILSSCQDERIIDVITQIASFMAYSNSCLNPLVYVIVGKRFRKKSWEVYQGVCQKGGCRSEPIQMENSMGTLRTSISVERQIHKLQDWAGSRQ
The format is cell membranes, Membrane. To be noted: chem-1.

Melanocortin receptor 5, sequence (P33032 whole entry): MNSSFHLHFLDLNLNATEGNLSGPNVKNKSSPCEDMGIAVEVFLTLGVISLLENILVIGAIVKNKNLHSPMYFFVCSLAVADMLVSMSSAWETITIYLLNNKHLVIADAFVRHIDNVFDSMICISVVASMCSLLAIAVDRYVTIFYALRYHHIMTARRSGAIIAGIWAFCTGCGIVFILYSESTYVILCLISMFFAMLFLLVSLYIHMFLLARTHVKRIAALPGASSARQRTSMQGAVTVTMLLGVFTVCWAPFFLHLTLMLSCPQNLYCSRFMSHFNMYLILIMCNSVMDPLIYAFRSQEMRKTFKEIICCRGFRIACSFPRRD

Regarding `CC[C@H](C)[C@@H](CO[C@@H](Cc1ccccc1)C(=O)N[C@@H](CCS(C)(=O)=O)C(=O)OC(C)C)NC[C@@H](N)CS`, the IC50 entry is “Not Active” in assay [1]; “Not Active” on Caspase-1; “Not Active” in assay [2]; 122 nM on Melanocortin receptor 5 (read-out: IC50); “Not Active” in assay [3]; “Not Active” in assay [4]. Further, the IC50 entry on B2 bradykinin receptor is on record as “Not Active”. The Ki result in assay [2] was “Not Active”; on Melanocortin receptor 5 (read-out: Ki), 114 nM; in assay [4] it was “Not Active”.

With `O=C1CC[C@@]2(O)[C@H]3Cc4ccc(O)c5c4[C@@]2(CCN3CC2CC2)[C@H]1O5` [NALTREXONE], the IC50 entry (in assay [1]; against Caspase-1; in assay [2]; against Melanocortin receptor 5 (hek293); in assay [3]; in assay [4]) was “Not Active” in each case. For the same molecule, at B2 bradykinin receptor, the IC50 result is recorded as “Not Active”. In addition, the Ki entry in assay [2] and in assay [4] was “Not Active” each time.

In the case of `C=CCc1ccc2c(c1)OCO2` [SAFROLE], the IC50 result (in assay [1]; against Caspase-1; in assay [2]; against Melanocortin receptor 5 (hek293); in assay [3]; in assay [4]) was “Not Active” throughout. Further, on B2 bradykinin receptor, the IC50 entry is listed as “Not Active”. In addition, the Ki result in assay [2] and in assay [4] was “Not Active” throughout.

Turning to `O=[As][O-].[Na+]` [SODIUM ARSENITE], the IC50 entry (in assay [1]; at Caspase-1; in assay [2]; on Melanocortin receptor 5 (hek293); in assay [3]; in assay [4]) was “Not Active” each time. Further, the IC50 result at B2 bradykinin receptor is “Not Active”. The Ki result in assay [2] and in assay [4] was “Not Active” in each case.

As for `Cc1cn([C@H]2C=C[C@@H](CO)O2)c(=O)[nH]c1=O` [STAVUDINE], the IC50 entry (in assay [1]; against Caspase-1; in assay [2]; against Melanocortin receptor 5 (hek293); in assay [3]; in assay [4]) was “Not Active” in each case. The IC50 result at B2 bradykinin receptor is listed as “Not Active”. Also, the Ki entry in assay [2] and in assay [4] was “Not Active” throughout.

For the molecule `COC(=O)Nc1nc2ccc(C(=O)c3ccccc3)cc2[nH]1` [MEBENDAZOLE], the IC50 entry (in assay [1]; against Caspase-1; in assay [2]; against Melanocortin receptor 5 (hek293); in assay [3]; in assay [4]) was “Not Active” in each case. Further, the IC50 result on B2 bradykinin receptor was “Not Active”. For the same molecule, the Ki entry in assay [2] and in assay [4] was “Not Active” throughout.

With `CC[C@H](C)C(=O)O[C@H]1CCC=C2C=C[C@H](C)[C@H](CC[C@@H]3C[C@@H](O)CC(=O)O3)[C@H]21` [MEVASTATIN], the IC50 result (in assay [1]; on Caspase-1; in assay [2]; at Melanocortin receptor 5 (hek293); in assay [3]; in assay [4]) was “Not Active” in each case. The IC50 result at B2 bradykinin receptor was “Not Active”. Moreover, the Ki result in assay [2] and in assay [4] was “Not Active” each time.

With `O=C(OC[C@H]1O[C@@H](OC(=O)c2cc(O)c(O)c(OC(=O)c3cc(O)c(O)c(O)c3)c2)[C@H](OC(=O)c2cc(O)c(O)c(OC(=O)c3cc(O)c(O)c(O)c3)c2)[C@@H](OC(=O)c2cc(O)c(O)c(OC(=O)c3cc(O)c(O)c(O)c3)c2)[C@@H]1OC(=O)c1cc(O)c(O)c(OC(=O)c2cc(O)c(O)c(O)c2)c1)c1cc(O)c(O)c(OC(=O)c2cc(O)c(O)c(O)c2)c1` [TANNIC ACID], the IC50 entry in assay [1] is “Not Active”; against Caspase-1 it was “Not Active”; in assay [2] (read-out: IC50), 714 nM; at Melanocortin receptor 5 (hek293), “Not Active”; in assay [3], “Not Active”; in assay [4], “Not Active”. In addition, the IC50 entry against B2 bradykinin receptor was “Not Active”. Moreover, the Ki entry in assay [4] is reported as “Not Active”.

With LEAD(IV) ACETATE, the IC50 result (in assay [1]; on Caspase-1; in assay [2]; against Melanocortin receptor 5 (hek293); in assay [3]; in assay [4]) was “Not Active” in each case. Also, the 50% inhibitory concentration (IC50) result on B2 bradykinin receptor is on record as “Not Active”. Also, the Ki result (in assay [1]; at Caspase-1; in assay [2]; at Melanocortin receptor 5 (hek293); in assay [3]; in assay [4]) was “Not Active” in each case. Besides, the Ki result on B2 bradykinin receptor was “Not Active”.

As for `CC#C[C@]1(O)CC[C@H]2[C@@H]3CCC4=CC(=O)CCC4=C3[C@@H](c3ccc(N(C)C)cc3)C[C@@]21C` [MIFEPRISTONE], the IC50 entry (in assay [1]; against Caspase-1; in assay [2]; on Melanocortin receptor 5 (hek293); in assay [3]; in assay [4]) was “Not Active” each time. For the same molecule, at B2 bradykinin receptor, the half-inhibitory concentration (IC50) entry is “Not Active”. Besides, the Ki entry in assay [2] and in assay [4] was “Not Active” throughout.

`Cc1[nH]c(=O)c(C#N)cc1-c1ccncc1` [MILRINONE]: the IC50 entry is “Not Active” in assay [1]; “Not Active” against Caspase-1; 958 nM in assay [2] (read-out: IC50); “Not Active” against Melanocortin receptor 5 (hek293); “Not Active” in assay [3]; “Not Active” in assay [4]. Besides, the IC50 entry on B2 bradykinin receptor is listed as “Not Active”. The Ki entry in assay [4] is recorded as “Not Active”.

For the molecule `CCN(CC)N=O` [N-NITROSODIETHYLAMINE], the IC50 entry (in assay [1]; against Caspase-1; in assay [2]; on Melanocortin receptor 5 (hek293); in assay [3]; in assay [4]) was “Not Active” in each case. Further, at B2 bradykinin receptor, the IC50 result is listed as “Not Active”. Further, the Ki entry in assay [2] and in assay [4] was “Not Active” throughout.

Take `Cc1ccc(S(=O)(=O)NC(=O)NN2CCCCCC2)cc1` [TOLAZAMIDE]: the IC50 entry (in assay [1]; against Caspase-1; in assay [2]; at Melanocortin receptor 5 (hek293); in assay [3]; in assay [4]) was “Not Active” in each case. Further, the IC50 result on B2 bradykinin receptor is given as “Not Active”. The Ki entry in assay [2] and in assay [4] was “Not Active” throughout.

On to `CC(O)C(=O)O` (stereo not drawn) [LACTIC ACID], for which the IC50 entry (in assay [1]; against Caspase-1; in assay [2]; on Melanocortin receptor 5 (hek293); in assay [3]; in assay [4]) was “Not Active” each time. At B2 bradykinin receptor, the IC50 entry is given as “Not Active”. For the same molecule, the Ki entry in assay [2] and in assay [4] was “Not Active” each time.

As for `CS(=O)(=O)c1ccc(C2=C(c3ccccc3)C(=O)OC2)cc1` [ROFECOXIB], the IC50 entry (in assay [1]; at Caspase-1; in assay [2]; on Melanocortin receptor 5 (hek293); in assay [3]; in assay [4]) was “Not Active” throughout. Further, the IC50 result at B2 bradykinin receptor is on record as “Not Active”. Further, the Ki entry in assay [2] and in assay [4] was “Not Active” in each case.

On to `CCOC(=O)C1=C(C)NC(C)=C(C(=O)OCC)C1c1ccccc1/C=C/C(=O)OC(C)(C)C` [LACIDIPINE], for which the IC50 result (in assay [1]; against Caspase-1; in assay [2]; against Melanocortin receptor 5 (hek293); in assay [3]; in assay [4]) was “Not Active” in each case. At B2 bradykinin receptor, the IC50 result is recorded as “Not Active”. For the same molecule, the Ki result in assay [2] and in assay [4] was “Not Active” in each case.

The values are drawn from ChEMBL document CHEMBL1909046, “DrugMatrix in vitro pharmacology data”.
